Experimental findings from patent US20230285601A1, “NON DEGRADABLE RADIO-OPAQUE EMBOLISATION MICROSPHERE” (GUERBET, priority 2019, published 2023) are described below.

Data set [1] can be described thus: Loading of anticancer drugs on the radiopaque microspheres. Format: physicochemical. As to the method: The tests of loading and controlled release of anticancer drugs were performed on radiopaque microspheres of 100-300 µm sterilized by autoclaving and comprising or not comprising an ionized or ionizable monomer such as methacrylic acid.
The microspheres with methacrylic acid are microspheres from batch 13, the composition of which is given in example 3. The microspheres without methacrylic acid have the same composition as the microspheres from batches L1 and L1Bis described in example 5.
Loading with doxorubicin: the target for loading is 37.5 mg of doxorubicin per ml of microspheres. For this, 3.8 mL of doxorubicin-HCl (Adriblastine®, Pfizer) in solution in water at 2.5 mg/mL is added to 250 µL of wet sediment of microspheres. After mixing by inversion, the suspension is made up to 6 mM with sodium bicarbonate (Lavoisier). Loading is carried out at room temperature and with stirring for one hour. Measurement of the residual amount of doxorubicin (absorbance at 490 nm) present in the supernatants serves for determining the amount of drug loaded on the microspheres.
Loading with irinotecan: the loading target is 50 mg of irinotecan per mL of microspheres. […] After 30 minutes, measurement of the residual amount of irinotecan (absorbance at 370 nm) in the supernatant serves for determining the amount loaded on the microspheres.
Loading with sunitinib: The sediments of the radiopaque microspheres are incubated for 1 h at room temperature in 10 mL of sunitinib in the form of malate (LC Laboratories) at 1 mg/mL in water. […] After stirring for 1 h on a wheel, measurement of the residual amount of sunitinib (absorbance at 405 nm) in the supernatant serves for determining the amount loaded on the microspheres.
Loading with vandetanib: The sediments of the radiopaque microspheres are incubated for 2 h at room temperature in 10 mL of a water/DMSO (1/1) mixture containing 5 mg of vandetanib (LC Laboratories). The residual amount of vandetanib in the supernatants is measured at 254 nm in order to calculate the amount loaded on the microspheres. […]

The nature of data set [2]: Release in vitro of anticancer drugs from the radiopaque microspheres. The format is physicochemical. Particulars: for Time for 50% release / Time for complete release / % elution at 1 h: microspheres with methacrylic acid, 37° C., 150 rpm; for % elution at 1 h: pH 7.4 buffer. On the procedure: To study the release of doxorubicin from the microspheres, the sediments are washed in 10 mL of water, before adding 50 mL of buffer 50 mM Tris-HCl, 0.9% NaCl, pH 7.4. Incubation takes place at 37° C. with stirring. The release of doxorubicin is measured at different times at 490 nm.
To study the release of irinotecan, the microspheres are washed in 10 mL of water, and then 50 mL of PBS (10 mM Na2HPO4, 1.8 mM KH2PO4, 138 mM NaCl, 2.7 mM KCl, pH 7.4) equilibrated at 37° C. is added. The release of the drug over time is measured by reading the absorbance at 370 nm.
To study the release of sunitinib, the microspheres are washed in 10 mL of water, and then 50 mL of PBS equilibrated at 37° C. is added. The release of the drug over time is measured by reading the absorbance at 405 nm.
To study the release of vandetanib, the microspheres are washed in 10 mL of water, and then 50 mL of PBS equilibrated at 37° C. is added. The release of the drug over time is measured by reading the absorbance at 254 nm.

Setting [3] is: 100-300 µm radiopaque microspheres with methacrylic acid (batch 13).

In the case of `COc1cccc2c1C(=O)c1c(O)c3c(c(O)c1C2=O)C[C@@](O)(C(=O)CO)C[C@@H]3O[C@H]1C[C@H](N)[C@H](O)[C@H](C)O1` [Doxorubicin, doxorubicin], the “Loading (mg of drug / mL of wet sediment)” value in data set [1] (setting [3]) is 36.8 mg of drug / mL of wet sediment. In addition, the “Loading (mg of drug / mL of wet sediment)” value in data set [1] (100-300 µm radiopaque microspheres without methacrylic acid) is 29.8 mg of drug / mL of wet sediment. The “Release (elution in PBS), in words” value in data set [2] (compared with irinotecan) is reported as “slower, being spread over several days”. For the same compound, in data set [2], the “Time for 50% release” value stood at 1 days, the “Time for complete release” value came out at 1 week and the “% elution at 1 h” value is recorded as 26%.
Regarding `CCc1c2c(nc3ccc(OC(=O)N4CCC(N5CCCCC5)CC4)cc13)-c1cc3c(c(=O)n1C2)COC(=O)[C@]3(O)CC` [Irinotecan, irinotecan], in data set [1] (setting [3]), the “Loading (mg of drug / mL of wet sediment)” value was 46 mg of drug / mL of wet sediment. Besides, in data set [2], the “Time for 50% release” value came to 0.042 days, the “Time for complete release” value worked out at 1 days and the “% elution at 1 h” value was determined as 50%.
